In PubChem BioAssay (NCI):
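The compound was tested at five concentrations on cells cultured in 96-well plates, with a 48-hour exposure period. Here, GI50 denotes the concentration required for 50% inhibition of growth. TGI marks complete inhibition of growth.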

What follows are molecules tested on A549 NSCLC (assay: growth of human tumour cells (NCI), 48 h).

Structure (SMILES) | GI50 | TGI
COc1ccc(Sc2[nH]c(C(C)=O)c3ccccc23)cc1 | 4 µM | 51.3 µM
C#CCOc1cccc(-c2ncc3cc(NC(=O)CCl)ccc3n2)c1 | 2.11 µM | 4.43 µM
COc1ccc(OC)c2c1[nH]c(=O)c1c3ccccc3cn21 | 1.02 µM | 2.37 µM
O=CCC1CCCCC1 | – | > 100 µM
CSc1nc(=O)n(CCC#N)nc1SC | – | > 100 µM
COc1cc(Nc2ncccc2C(=O)NCc2cn(Cc3cccc(Oc4ccccc4)c3)nn2)cc(OC)c1 | 4.02 µM | > 100 µM
Nc1ccc([N+](=O)[O-])cc1N=C/C=C/c1ccccc1 | 21.9 µM | > 100 µM
Cc1cc(Nc2ccc(NC(=O)c3ccc(Nc4ccnc5ccccc45)cc3)cc2)nc(N)n1 | 14.6 µM | > 100 µM
COc1cc(-c2oc(=O)ccc2C#Cc2ccccn2)cc(OC)c1OC | 4.15 µM | > 100 µM
COc1cccc(C2CC(C)(O)Oc3cc4c(cc32)OCO4)c1O (stereo not drawn) | – | > 100 µM
COC(=O)C1c2cc3c(cc2C(OC2OC(C)C(OC)C(C)(OC)C2OC)CC1(C)O)C(=O)c1c(O)cc2c(c1C3=O)OC1OC2(C)C(O)C([N+](C)(C)[O-])C1O (stereo not drawn) | – | > 75.8 µM
CNCc1ccccc1-c1csc([C@@H](C)Nc2nc(C)nc3cc(OC)c(OC)cc23)c1 | 1.94 µM | 5.73 µM
Cn1cc(C2=C(c3ccc(N)cc3)C(=O)NC2=O)c2ccccc21 | 18.4 µM | > 25 µM
Cc1cc(Cl)cc(OCCn2cc(F)cn2)c1-c1nc(N)nc2c1CN(C(=O)NCC(C)(F)F)C2 | 0.116 µM | > 100 µM
COc1ccc(/C=C\[N+](=O)[O-])cc1OC | 1.94 µM | 4.97 µM
CCN(CC)CCC(CNc1ccnc2cc(Cl)ccc12)c1ccc(Cl)cc1 (stereo not drawn) | 1.64 µM | 3.96 µM
COc1cccc(F)c1C(=O)c1cnc(NC2CCN(S(C)(=O)=O)CC2)nc1N | 3.15 µM | > 25 µM

Structure (SMILES) | GI50 | TGI
CCOC(=O)C(C#N)C1=CC(=O)C(=O)c2ccc(OC)cc21 (stereo not drawn) | – | 41 µM
COc1cc(OCc2cccc(-c3ccc(C(O)c4nccs4)cc3)c2C)cc(OC)c1C=O (stereo not drawn) | 2.32 µM | 11.6 µM
COC(=O)c1ccc2c(c1)nc(NC(=O)c1ccccc1)n2CCCc1ccccc1 | 3.6 µM | > 100 µM
Cc1ccc(S(=O)(=O)Nc2ccccc2C=O)cc1 | – | > 100 µM
O=C(O)COc1ccc2c(=O)c3sc4c(=O)c5ccccc5c(=O)c4c3c(=O)c2c1 | 11.2 µM | 26.5 µM
O=C(Nc1ccc2ncccc2c1)Nc1ccc2ncccc2c1 | – | > 100 µM
CC1(C)S[C@@H]2[C@H](NC(=O)C3(N)CCCCC3)C(=O)N2[C@H]1C(=O)O | – | > 100 µM
NC(=O)/C=C/C(=O)c1c(Cl)cccc1Cl | 1.79 µM | 3.39 µM
CC1(C)N=C(N)N=C(N)N1c1ccc(CCCCc2ccc(Cl)cc2S(=O)(=O)F)c(Cl)c1 | 0.388 µM | 13.9 µM
O=C(Nc1ccc(Nc2ccncc2)cc1)c1ccc([N+](=O)[O-])cc1 | 10 µM | 33.1 µM
C(=NCCN1CCOCC1)=NC1CCCCC1 | – | > 100 µM
COc1ccccc1/C=N\N/C(N)=N\N=C\c1ccccc1OC | 1.55 µM | > 100 µM
NC(N)=N/N=C/c1c(-c2ccsc2)nc2sccn12 | 21.7 µM | 43.7 µM
Oc1ccc(Nc2ncnc3c2sc2ncccc23)cc1 | 0.0164 µM | > 100 µM
COc1cccc(CC(C)=C(c2ccc(OCCN(C)C)cc2)c2ccc(OCCN(C)C)cc2)c1 | 3.59 µM | 8.25 µM
NC(=S)N/N=C/C(=O)O | 96.8 µM | > 100 µM
Cc1ccc(SC2c3ccc(C)cc3Oc3nc(N)c(C#N)c(N)c32)cc1 (stereo not drawn) | 4.9 µM | 17.3 µM

Each molecule was assayed on CCRF-CEM leukemia (assay: growth of human tumour cells (NCI), 48 h).

Structure (SMILES) | GI50 | TGI
COc1ccc(Sc2[nH]c(C(C)=O)c3ccccc23)cc1 | 14.3 µM | 40 µM
C#CCOc1cccc(-c2ncc3cc(NC(=O)CCl)ccc3n2)c1 | 0.252 µM | 0.994 µM
COc1ccc(OC)c2c1[nH]c(=O)c1c3ccccc3cn21 | 1.17 µM | 3.81 µM
COc1cc(Nc2ncccc2C(=O)NCc2cn(Cc3cccc(Oc4ccccc4)c3)nn2)cc(OC)c1 | 4.19 µM | > 100 µM
COc1cc(-c2oc(=O)ccc2C#Cc2ccccn2)cc(OC)c1OC | 2.14 µM | > 30 µM
COc1cccc(C2CC(C)(O)Oc3cc4c(cc32)OCO4)c1O (stereo not drawn) | – | > 95.9 µM
COC(=O)C1c2cc3c(cc2C(OC2OC(C)C(OC)C(C)(OC)C2OC)CC1(C)O)C(=O)c1c(O)cc2c(c1C3=O)OC1OC2(C)C(O)C([N+](C)(C)[O-])C1O (stereo not drawn) | – | 0.921 µM
CNCc1ccccc1-c1csc([C@@H](C)Nc2nc(C)nc3cc(OC)c(OC)cc23)c1 | 2.26 µM | 5.3 µM
Cn1cc(C2=C(c3ccc(N)cc3)C(=O)NC2=O)c2ccccc21 | 12.3 µM | > 25 µM
Cc1cc(Cl)cc(OCCn2cc(F)cn2)c1-c1nc(N)nc2c1CN(C(=O)NCC(C)(F)F)C2 | 0.0507 µM | > 100 µM
COc1ccc(/C=C\[N+](=O)[O-])cc1OC | 3.2 µM | 22.7 µM
CCN(CC)CCC(CNc1ccnc2cc(Cl)ccc12)c1ccc(Cl)cc1 (stereo not drawn) | 1.27 µM | 6.29 µM
COc1cccc(F)c1C(=O)c1cnc(NC2CCN(S(C)(=O)=O)CC2)nc1N | 2.51 µM | > 25 µM
CCOC(=O)C(C#N)C1=CC(=O)C(=O)c2ccc(OC)cc21 (stereo not drawn) | – | > 100 µM
COc1cc(OCc2cccc(-c3ccc(C(O)c4nccs4)cc3)c2C)cc(OC)c1C=O (stereo not drawn) | 2.33 µM | 19.9 µM
COC(=O)c1ccc2c(c1)nc(NC(=O)c1ccccc1)n2CCCc1ccccc1 | 1.86 µM | > 100 µM
O=C(O)COc1ccc2c(=O)c3sc4c(=O)c5ccccc5c(=O)c4c3c(=O)c2c1 | 23.6 µM | 62.9 µM
O=C(Nc1ccc2ncccc2c1)Nc1ccc2ncccc2c1 | – | > 100 µM
CC1(C)S[C@@H]2[C@H](NC(=O)C3(N)CCCCC3)C(=O)N2[C@H]1C(=O)O | – | > 100 µM
CC1(C)N=C(N)N=C(N)N1c1ccc(CCCCc2ccc(Cl)cc2S(=O)(=O)F)c(Cl)c1 | 0.372 µM | 8.16 µM
O=C(Nc1ccc(Nc2ccncc2)cc1)c1ccc([N+](=O)[O-])cc1 | 3.37 µM | –
COc1ccccc1/C=N\N/C(N)=N\N=C\c1ccccc1OC | 0.323 µM | 2.08 µM
CC[As](CC)SC[C@H](C)C(=O)N1CCC[C@H]1C(=O)O | 0.017 µM | 0.0573 µM
NC(N)=N/N=C/c1c(-c2ccsc2)nc2sccn12 | 1.48 µM | 6.07 µM
Oc1ccc(Nc2ncnc3c2sc2ncccc23)cc1 | 0.0307 µM | > 100 µM
COc1cccc(CC(C)=C(c2ccc(OCCN(C)C)cc2)c2ccc(OCCN(C)C)cc2)c1 | 0.693 µM | 2.23 µM
NC(=S)N/N=C/C(=O)O | 65.4 µM | > 100 µM
Cc1ccc(SC2c3ccc(C)cc3Oc3nc(N)c(C#N)c(N)c32)cc1 (stereo not drawn) | 2.18 µM | 6.77 µM

What follows are molecules tested on K-562 leukemia (assay: growth of human tumour cells (NCI), 48 h).

Structure (SMILES) | GI50 | TGI
COc1ccc(Sc2[nH]c(C(C)=O)c3ccccc23)cc1 | 2.65 µM | 14.7 µM
C#CCOc1cccc(-c2ncc3cc(NC(=O)CCl)ccc3n2)c1 | 0.561 µM | > 100 µM
